Reference: publication PMC8911752, “The Synthesis and Initial Evaluation of MerTK Targeted PET Agents” (Molecules, 2022)

Experiments:
Assay type in all cases: biochemical
[1] = molecular target: T1, Axl (Homo sapiens, UniProt P30530); assay: Microcapillary electrophoresis (MCE) kinase assay, Axl; settings: ATP at Km, mean of two or more independent assays
T1 sequence (P30530 26-894): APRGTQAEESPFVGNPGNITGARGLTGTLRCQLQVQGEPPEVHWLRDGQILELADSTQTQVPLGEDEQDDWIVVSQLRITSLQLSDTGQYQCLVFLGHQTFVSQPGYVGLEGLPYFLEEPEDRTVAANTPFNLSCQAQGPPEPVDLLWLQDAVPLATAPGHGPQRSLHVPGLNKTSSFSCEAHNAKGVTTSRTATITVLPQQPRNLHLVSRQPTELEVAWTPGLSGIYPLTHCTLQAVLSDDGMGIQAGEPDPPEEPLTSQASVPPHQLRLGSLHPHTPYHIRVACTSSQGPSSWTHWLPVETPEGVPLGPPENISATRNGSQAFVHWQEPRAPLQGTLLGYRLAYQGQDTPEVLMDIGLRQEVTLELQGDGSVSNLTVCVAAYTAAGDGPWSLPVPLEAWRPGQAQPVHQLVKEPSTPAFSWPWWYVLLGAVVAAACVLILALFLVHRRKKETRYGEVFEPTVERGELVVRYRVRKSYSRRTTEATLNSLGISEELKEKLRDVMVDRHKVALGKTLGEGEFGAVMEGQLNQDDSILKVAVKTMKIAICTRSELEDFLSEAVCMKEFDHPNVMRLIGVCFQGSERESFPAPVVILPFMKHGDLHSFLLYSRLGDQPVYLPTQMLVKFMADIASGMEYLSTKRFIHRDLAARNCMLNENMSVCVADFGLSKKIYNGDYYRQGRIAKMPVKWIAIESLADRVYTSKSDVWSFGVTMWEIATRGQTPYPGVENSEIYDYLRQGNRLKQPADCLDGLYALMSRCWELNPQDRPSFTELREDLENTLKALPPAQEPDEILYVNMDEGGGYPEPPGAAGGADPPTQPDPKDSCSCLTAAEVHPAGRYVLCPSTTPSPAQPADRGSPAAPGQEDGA
Experimental: (§1) The inhibitory activities of standards towards MerTK, Axl, Tyro3 and Flt3 were determined in our in-house microcapillary electrophoresis (MCE) assays.
(§2) Microcapillary Electrophoresis (MCE) Assays were performed with literature method. […] All reactions were terminated by addition of 20 µL of 70 mM EDTA. After an 180 min incubation, phosphorylated and unphosphorylated substrate peptides (Table 2) were separated in buffer supplemented with 1 x CR-8 on a LabChip EZ Reader equipped with a 12-sipper chip. Data were analyzed using EZ Reader software.

[2] = molecular target: T2, MerTK (Homo sapiens, UniProt Q12866); assay: Microcapillary electrophoresis (MCE) kinase assay, MerTK; settings: for IC50: MCE assay, ATP at Km, mean of two or more independent assays; for selectivity over Axl, Tyro3 and Flt3: MerTK versus Axl, Tyro3, Flt3 in MCE assays
T2 sequence (Q12866 21-999): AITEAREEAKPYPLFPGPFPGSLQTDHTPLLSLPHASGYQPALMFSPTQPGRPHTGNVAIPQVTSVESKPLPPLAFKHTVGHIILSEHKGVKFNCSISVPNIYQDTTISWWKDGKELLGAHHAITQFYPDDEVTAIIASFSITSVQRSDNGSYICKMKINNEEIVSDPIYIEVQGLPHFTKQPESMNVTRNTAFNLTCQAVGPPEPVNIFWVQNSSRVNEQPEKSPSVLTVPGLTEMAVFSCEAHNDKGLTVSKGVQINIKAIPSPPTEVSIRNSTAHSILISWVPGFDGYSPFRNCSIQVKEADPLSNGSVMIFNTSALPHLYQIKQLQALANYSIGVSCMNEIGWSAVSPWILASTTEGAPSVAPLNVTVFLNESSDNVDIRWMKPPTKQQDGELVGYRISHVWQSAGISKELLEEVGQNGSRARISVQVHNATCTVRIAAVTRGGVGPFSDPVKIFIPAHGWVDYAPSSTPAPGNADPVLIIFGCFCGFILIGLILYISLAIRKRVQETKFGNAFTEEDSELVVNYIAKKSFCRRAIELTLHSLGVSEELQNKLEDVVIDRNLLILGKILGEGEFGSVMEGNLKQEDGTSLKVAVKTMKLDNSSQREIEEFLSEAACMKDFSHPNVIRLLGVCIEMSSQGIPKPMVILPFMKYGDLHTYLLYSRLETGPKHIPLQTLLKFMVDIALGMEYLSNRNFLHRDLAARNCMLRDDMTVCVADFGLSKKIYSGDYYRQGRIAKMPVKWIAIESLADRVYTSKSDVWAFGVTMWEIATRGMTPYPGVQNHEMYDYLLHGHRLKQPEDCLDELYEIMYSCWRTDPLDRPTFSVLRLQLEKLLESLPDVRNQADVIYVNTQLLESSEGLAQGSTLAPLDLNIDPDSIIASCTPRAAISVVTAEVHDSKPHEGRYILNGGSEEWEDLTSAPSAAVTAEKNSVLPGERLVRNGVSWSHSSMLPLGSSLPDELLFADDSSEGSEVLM
Experimental: as §1, §2

[3] = molecular target: T3, Tyro3 (Homo sapiens, UniProt Q06418); assay: Microcapillary electrophoresis (MCE) kinase assay, Tyro3; settings: ATP at Km, mean of two or more independent assays
T3 sequence (Q06418 41-890): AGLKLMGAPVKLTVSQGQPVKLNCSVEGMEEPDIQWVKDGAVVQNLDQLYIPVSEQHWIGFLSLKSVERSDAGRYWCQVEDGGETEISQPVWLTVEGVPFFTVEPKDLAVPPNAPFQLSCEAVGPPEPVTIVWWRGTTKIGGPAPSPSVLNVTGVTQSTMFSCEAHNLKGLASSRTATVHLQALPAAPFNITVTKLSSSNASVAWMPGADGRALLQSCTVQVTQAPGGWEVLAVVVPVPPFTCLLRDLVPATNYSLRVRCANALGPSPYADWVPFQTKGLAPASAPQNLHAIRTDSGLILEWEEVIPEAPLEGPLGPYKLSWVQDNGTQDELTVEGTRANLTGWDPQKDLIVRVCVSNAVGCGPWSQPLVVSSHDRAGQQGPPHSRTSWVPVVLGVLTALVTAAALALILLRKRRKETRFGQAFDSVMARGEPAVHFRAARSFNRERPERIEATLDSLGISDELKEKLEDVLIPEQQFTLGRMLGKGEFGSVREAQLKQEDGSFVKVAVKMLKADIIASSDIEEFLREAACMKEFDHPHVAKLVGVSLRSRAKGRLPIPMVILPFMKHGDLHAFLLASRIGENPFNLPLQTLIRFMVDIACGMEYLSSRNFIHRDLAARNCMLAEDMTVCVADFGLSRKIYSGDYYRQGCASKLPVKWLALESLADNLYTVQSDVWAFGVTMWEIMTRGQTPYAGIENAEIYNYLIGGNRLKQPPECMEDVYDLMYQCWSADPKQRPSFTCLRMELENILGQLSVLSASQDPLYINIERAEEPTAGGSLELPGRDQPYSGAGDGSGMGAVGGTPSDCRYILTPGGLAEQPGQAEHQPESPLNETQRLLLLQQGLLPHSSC
Experimental: as §1, §2

IC50 [1] [µM]	IC50 [2] [µM]	selectivity over Axl, Tyro3 and Flt3 [2]	IC50 [3] [µM]	SMILES
1.1	0.015	good selectivity	0.19	CCC[C@H](C)Nc1ncc2c(C3CCN(CCF)CC3)cn([C@H]3CC[C@H](O)CC3)c2n1 [MerTK-5]
2.1	0.037	good selectivity	0.12	C[C@H](Nc1ncc2c(C3CCN(CCF)CC3)cn([C@H]3CC[C@H](O)CC3)c2n1)c1ccccc1 [MerTK-6]
1.7	0.061	Good selectivity	0.18	C[C@H](Nc1ncc2c(C3CCN(C)CC3)cn([C@H]3CC[C@H](O)CC3)c2n1)c1ccccc1 [MerTK-2]
4.1	0.013	–	0.18	C[C@H](Nc1ncc2c(C3CCN(C(=S)Nc4ccc(CC5CN(CC(=O)O)CCN(CC(=O)O)CCN5CC(=O)O)cc4)CC3)cn([C@H]3CC[C@H](O)CC3)c2n1)c1ccccc1 (stereo partly drawn) [MerTK-4]
